For assay [1], the system named is CEM-SS. In words: Compound was tested for cytotoxicity in uninfected CEM-SS cells. Type of assay: functional. Conditions: Homo sapiens.
Assay [2] has as its system CEM-SS. Briefly: Compound was tested for the prevention of cytopathic effect of HIV-1 RF in CEM-SS cells. Type of assay: functional, cell-based. Particulars: Homo sapiens. (In general: Protection from cytopathic effect is a common read-out in antiviral testing.)
Assay [3] deals with MT4. Briefly: Compound was tested for the inhibition of cytopathic effect of HIV-1 N119 in MT-4 cells. It counts as functional, Homo sapiens.
Assay [4] deals with MT4. In words: Compound was tested for the inhibition of cytopathic effect of HIV-1 6S in MT-4 cells. Type of assay: functional, Homo sapiens.

For orientation: CC50 means the concentration that lowers cell viability or growth by half. Low values mean greater toxicity to the cells, high ones lower toxicity to the cells. In general, EC50 refers to the concentration needed to bring the measured effect to its halfway point. A low value points to greater potency.

Turning to `COC(=O)CCCC=C(c1cc(Cl)c(OC)c(C(=O)OC)c1)c1cc(Cl)c(OC)c(C(=O)OC)c1`, it took 31.6 µM to reach half-maximal cytotoxicity in the assay on CEM-SS [1] (CC50). The compound also had an EC50 in the assay with CEM-SS [2] of 0.013 µM.
In the case of `CCCCCC=C(c1cc(Br)c(OC)c(C(=O)OC)c1)c1cc(Br)c(OC)c(C(=O)OC)c1`, the values for the Activity with MT4 [3] and in the assay on MT4 [4] were 151 µM and 0.56 µM, respectively.

These data come from ChEMBL document CHEMBL1130621, “Synthesis of a non-nucleoside reverse transcriptase inhibitor in the alkenyldiarylmethane (ADAM) series with optimized potency and therapeutic index” (Bioorg Med Chem Lett, 1998).
